In patent US6518257B1, “1-substituted phenyl-1-(1h-imidazol-4-yl) alcohols, process for producing the same and use thereof” (Takeda Chemical Industries, Ltd., priority 1999, dated 2003):

Legend:
Rat Steroid C17,20-lyase = target: T1, Rat Steroid C17,20-lyase (Rattus norvegicus, UniProt P11715); assay: Assay of inhibitory activity on rat steroid C17,20-lyase (testis microsomes, [1,2-3H]-17-α-hydroxyprogesterone substrate, TLC); assay type: biochemical; details: rat testis microsomes (7 μg/10 μl), 10 nM [1,2-3H]-17-α-hydroxyprogesterone, NADPH, pH 7.4, 37° C., 7 minutes; products androstenedione and testosterone
T1 construct: Testes were excised from 13-week-old male SD rats, homogenized, and centrifuged to give microsomes; from tissue; host or cells: testis microsomes of 13-week-old male SD rats
T1 sequence (P11715 1-507): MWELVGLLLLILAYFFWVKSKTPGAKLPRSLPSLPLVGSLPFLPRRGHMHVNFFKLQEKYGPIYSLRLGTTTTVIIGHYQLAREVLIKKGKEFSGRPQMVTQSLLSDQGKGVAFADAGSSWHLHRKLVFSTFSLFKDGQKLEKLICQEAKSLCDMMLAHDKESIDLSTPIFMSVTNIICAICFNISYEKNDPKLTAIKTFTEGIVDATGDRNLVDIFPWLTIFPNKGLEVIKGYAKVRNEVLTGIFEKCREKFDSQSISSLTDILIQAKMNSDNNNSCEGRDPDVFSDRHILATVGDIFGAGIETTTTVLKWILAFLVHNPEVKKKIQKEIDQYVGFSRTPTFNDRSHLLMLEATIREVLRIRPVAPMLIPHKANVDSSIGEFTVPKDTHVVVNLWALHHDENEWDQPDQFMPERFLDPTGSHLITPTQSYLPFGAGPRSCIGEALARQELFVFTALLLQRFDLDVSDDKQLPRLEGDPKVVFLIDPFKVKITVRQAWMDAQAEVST
Procedure: Assay of Inhibitory Activity on Rat Steroid C17,20-lyase
The activity was determined according to The Prostate, vol. 26, 140-150 (1995).
Testes were excised from 13-week-old male SD rats, homogenized, and centrifuged to give microsomes. [1,2-^3H]-17-α-hydroxyprogesterone having a final concentration of 10 nM, NADPH solution and test compounds were dissolved in 10 μl of 100 mM phosphate buffer (pH 7.4) and microsome protein (7 μg/10 μl) was added. The reaction mixture was incubated at 37° C. for 7 minutes. Ethyl acetate (40 μl) was added and the mixture was centrifuged. The substrate and the products (androstenedione and testosterone) in the supernatant were separated by silica gel thin layer chromatography (TLC). The spots were detected and quantitatively determined by BAS 2000 Bioimage analyzer. The concentration of the test compounds necessary to reduce the amount of the products by 50% (IC50) relative to the amount of the products without test compound (control) as 100% was calculated, and shown in Table 1.

[1] = system: Testosterone Synthesis in Rats; assay: Assay of inhibitory activity on testosterone synthesis in rats (serum testosterone by radioimmunoassay); assay type: in vivo, rat; details: 50 mg/kg orally, 9-week-old male SD rats, serum testosterone two hours after administration, as percentage of control group
Procedure: Assay of Inhibitory Activity on Testosterone Synthesis in Rats
Test compounds (50 mg/kg) were orally administered to 9-week-old male SD (Sprague Dawley) rats. Two hours after administration of the compounds, blood was drawn and testosterone concentration in the obtained serum was measured by radioimmunoassay. The percentage (T/C, %) of the testosterone concentration of test compounds administration group to that of the control group was calculated, and taken as the inhibitory activity on testosterone synthesis.

| IC50 (Rat Steroid C17,20-lyase) [µM] | SMILES | testosterone synthesis inhibitory activity (T/C, %) [1] [%] |
| --- | --- | --- |
| 0.012 | Cc1ccccc1-c1cccc(C(O)(c2c[nH]cn2)C(C)C)c1 (stereo not drawn) [Example 17, 1-(1H-imidazol-4-yl)-2-methyl-1-(2′-methyl[1,1′-biphenyl]-3-yl)-1-propanol] |  |
| 0.028 | CC(C)C(O)(c1ccc(-c2ccc(F)cc2)cc1)c1c[nH]cn1 (stereo not drawn) [Example 4, 1-(4′-fluoro[1,1′-biphenyl]-4-yl)-1-(1H-imidazol-4-yl)-2-methyl-1-propanol] |  |
| 0.0083 | CC(C)C(O)(c1cccc(-c2ccc(F)cc2)c1)c1c[nH]cn1 (stereo not drawn) [Example 13, 1-(4′-fluoro[1,1′-biphenyl]-3-yl)-1-(1H-imidazol-4-yl)-2-methyl-1-propanol] | 4.7 |
| 0.01 | COc1ccc(-c2cccc(C(O)(c3c[nH]cn3)C(C)C)c2)cc1 (stereo not drawn) [Example 9, 1-(1H-imidazol-4-yl)-1-(4′-methoxy[1,1′-biphenyl]-3-yl)-2-methyl-1-propanol] | 4.6 |
| 0.011 | CCC(O)(c1cccc(-c2ccc(F)cc2)c1)c1c[nH]cn1 (stereo not drawn) [Example 27, 1-[4′-fluoro[1,1′-biphenyl]-3-yl]-1-(1H-imidazol-4-yl)-1-propanol] |  |
| 0.015 | CC(C)C(O)(c1cccc(-c2ccccc2)c1)c1c[nH]cn1 (stereo not drawn) [Example 6, 1-[1,1′-biphenyl]-3-yl-1-(1H-imidazol-4-yl)-2-methyl-1-propanol] | 4.3 |
